From EPA's ToxRefDB 2

How the values were obtained:
rat [1] = conditions: Combined chronic toxicity/carcinogenicity, fischer, Oral, Gavage/Intubation, dose end: 103 week, group: systemic
mouse [2] = conditions: Combined chronic toxicity/carcinogenicity, b6c3f1, Oral, Gavage/Intubation, dose end: 103 week, group: systemic
rat [3] = conditions: Peri- and post-natal toxicity study (Segment III), sprague dawley, Oral, Gavage/Intubation, dose end: 40 PND
rat [4] = conditions: Prenatal developmental toxicity study; sprague dawley; Oral; Gavage/Intubation; dose end: 19 GD; group: maternal; systemic / in life observation / body weight / body weight gain + systemic / in life observation / food consumption / food consumption + …
rat [5] = conditions: Combined chronic toxicity/carcinogenicity, sprague dawley, Oral, Feed, dose end: 24 month, group: systemic
mouse [6] = conditions: Combined chronic toxicity/carcinogenicity, other, Oral, Feed, dose end: 91 week, group: systemic
rat [7] = conditions: Chronic toxicity, Sprague-Dawley, Oral, Feed, dose end: 104 week, group: systemic
dog = conditions: Subchronic oral toxicity in nonrodent, beagle, Feed, dose end: 26 week, group: systemic, systemic / in life observation / clinical signs / chewing of extremities + systemic / in life observation / clinical signs / muscle …
[8] = systemic / in life observation / body weight / body weight
[9] = systemic / pathology microscopic / blood / leukemia mononuclear + systemic / in life observation / body weight / body weight
[10] = systemic / pathology microscopic / liver / vacuolization cytoplasmic
[11] = systemic / pathology microscopic / liver / vacuolization cytoplasmic + systemic / in life observation / body weight / body weight
[12] = group: maternal, reproductive / reproductive performance / estrous cycle / corpora lutea
[13] = group: parental, systemic / organ weight / liver / absolute + systemic / organ weight / thyroid gland / absolute + systemic / pathology microscopic / ovary…
[14] = group: parental, systemic / organ weight / liver / absolute + systemic / pathology microscopic / ovary / follicle count + systemic / pathology microscopic / …
[15] = systemic / in life observation / body weight / body weight + systemic / clinical chemistry / alpha-2 globulin / alpha-2 globulin + systemic…
[16] = systemic / pathology microscopic / liver / granuloma + systemic / pathology microscopic / lymph node / granuloma + systemic / clinical …
[17] = systemic / pathology microscopic / liver / granuloma + systemic / pathology microscopic / lymph node / granuloma + systemic / hematology / …
[18] = systemic / in life observation / body weight / body weight + systemic / organ weight / brain / relative to body weight + systemic / organ …

C=CCN=C=S [Allyl isothiocyanate] was tested, and the LOAEL (rat [1]; [8]) was 25 mg/kg/day, the NOAEL (rat [1]; systemic / in life observation / body weight / body weight + systemic / pathology microscopic / blood / leukemia mononuclear + systemic / …) was 12 mg/kg/day and the LEL (rat [1]; [9]) was 12 mg/kg/day. The NEL (rat [1]; [9]) was < 12 mg/kg/day, the LEL (mouse [2]; [10]) was 12 mg/kg/day and the NEL (mouse [2]; [10]) was < 12 mg/kg/day. The LOAEL (mouse [2]; [11]) was > 25 mg/kg/day and the NOAEL (mouse [2]; [11]) was ≥ 25 mg/kg/day.
In the case of CCCCOC(=O)c1ccc(O)cc1 [Butylparaben], the LEL (rat [3]; [12]) was 62.5 mg/kg/day, the LOAEL (rat [3]; [12]) was > 1000 mg/kg/day and the NEL (rat [3]; [12]) was < 62.5 mg/kg/day. For the same compound, the NOAEL (rat [3]; [12]) was ≥ 1000 mg/kg/day, the LOAEL (rat [3]; [13]) was > 1000 mg/kg/day and the NOAEL (rat [3]; [13]) was ≥ 1000 mg/kg/day. The LEL (rat [3]; [14]) was 62.5 mg/kg/day, the NEL (rat [3]; [14]) was < 62.5 mg/kg/day and the LEL (rat [4]) was 1000 mg/kg/day. The LOAEL (rat [4]) was > 1000 mg/kg/day, the NEL (rat [4]) was 100 mg/kg/day and the NOAEL (rat [4]) was ≥ 1000 mg/kg/day.
With CC(C)[C@@H](C(=O)O[C@@H](C#N)c1cccc(Oc2ccccc2)c1)c1ccc(Cl)cc1 [Fenvalerate] the LEL (rat [5]; [8]) was 1.25 mg/kg/day, the NEL (rat [5]; systemic / in life observation / body weight / body weight + systemic / clinical chemistry / alpha-2 globulin / alpha-2 globulin) was 0.25 mg/kg/day and the LOAEL (rat [5]; [15]) was > 25 mg/kg/day. For the same compound, the NOAEL (rat [5]; [15]) was ≥ 25 mg/kg/day, the NEL (mouse [6]; [16]) was 4.5 mg/kg/day and the NOAEL (mouse [6]; [16]) was 4.5 mg/kg/day. For the same compound, the LEL (mouse [6]; [17]) was 15 mg/kg/day, the LOAEL (mouse [6]; [17]) was 15 mg/kg/day and the LOAEL (rat [7]; [8]) was 50 mg/kg/day. The NOAEL (rat [7]; [8]) was < 50 mg/kg/day, the LEL (rat [7]; [18]) was 50 mg/kg/day and the NEL (rat [7]; [18]) was < 50 mg/kg/day. For the same compound, the LEL (dog) was 6.25 mg/kg/day, the LOAEL (dog) was 6.25 mg/kg/day and the NEL (dog) was < 6.25 mg/kg/day. The NOAEL (dog) was < 6.25 mg/kg/day.
